By IC50 is commonly meant the midpoint of a concentration-inhibition curve.

Values joined by “and” are separate entries in the source; they are usually repeats but may differ in a detail not shown here. Equal values may be shown once. “Also recorded” adds a separate entry of the source.

Format in all cases: cell-based
In assay [1] the target is T1, SLC1A4 (Homo sapiens, UniProt P43007).
T1 construct: expressed in transfected cells; host or cells: Xenopus laevis oocytes (cRNA injection)
T1 sequence (P43007 1-532): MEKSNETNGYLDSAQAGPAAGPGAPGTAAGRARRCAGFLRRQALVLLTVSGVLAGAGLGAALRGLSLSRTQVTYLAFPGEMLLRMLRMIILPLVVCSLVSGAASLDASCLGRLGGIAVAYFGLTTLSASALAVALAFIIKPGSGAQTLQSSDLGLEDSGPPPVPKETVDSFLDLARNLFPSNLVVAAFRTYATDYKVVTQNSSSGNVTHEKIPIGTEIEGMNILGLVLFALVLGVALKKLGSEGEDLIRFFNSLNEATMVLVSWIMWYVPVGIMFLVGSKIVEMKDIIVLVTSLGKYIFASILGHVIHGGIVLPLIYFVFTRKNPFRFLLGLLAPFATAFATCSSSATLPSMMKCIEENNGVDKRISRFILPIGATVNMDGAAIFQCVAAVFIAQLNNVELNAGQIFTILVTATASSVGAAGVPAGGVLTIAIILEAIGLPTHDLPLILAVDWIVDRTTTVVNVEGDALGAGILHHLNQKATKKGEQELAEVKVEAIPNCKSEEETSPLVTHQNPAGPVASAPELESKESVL
The assay can be described thus: TEVC block of anion leak conductance in oocytes. The conditions noted are these: SLC1A4; compared with ligands of refs 43, 65. An excerpt: The currents induced by substrates and blocked by hydroxyproline analogs shared a reversal potential shown in the current/voltage relationship consistent with the conductance originating from the same ion pore (Figure 3, inset). […] The observed dose–response relationships are independent of competing substrates, and thus provide a direct measure of the equilibrium inhibition constant (Ki). Each synthetic hydroxyproline analog was functionally assessed for its capacity to inhibit SLC1A4 and SLC1A5 leak currents with affinities reported in Table 1 as determined or approximated Ki.
(§1) Two-electrode voltage clamp (TEVC) transporter currents were recorded with a GeneClamp 500 amplifier and Digidata 1320A analog–digital interface (Molecular Devices, San Jose, CA, USA). Electrodes (0.2–1.0 MΩ) were filled with 3M KCl and the recording chamber was grounded with an agar bridge. Data were acquired with Axograph (v1.7.6) and LabChart (v7) and analyzed with Kaleidagraph software (v4.1) (Synergy, Reading, PA, USA). Uncoupled anion currents associated with the transport of substrate and block of SLC1A4 or SLC1A5 mediated leak conductance were recorded in the presence of Ringer with 50% substitution of NaCl by NaSCN to amplify the non-transported anion conductance.
Figure 3 AHPCs block a leak current in SLC1A4 and SLC1A5. […] Inset (A): The current and voltage relationship for SLC1A4 currents activated by Ala or blocked by 14b are determined by subtracting voltage jumps in buffer.

The target in assay [2] is T2, SLC1A1 (EAAT3) (Homo sapiens, UniProt P43005).
T2 construct: expressed in transfected cells; host or cells: Xenopus laevis oocytes (cRNA injection)
T2 sequence (P43005 1-524): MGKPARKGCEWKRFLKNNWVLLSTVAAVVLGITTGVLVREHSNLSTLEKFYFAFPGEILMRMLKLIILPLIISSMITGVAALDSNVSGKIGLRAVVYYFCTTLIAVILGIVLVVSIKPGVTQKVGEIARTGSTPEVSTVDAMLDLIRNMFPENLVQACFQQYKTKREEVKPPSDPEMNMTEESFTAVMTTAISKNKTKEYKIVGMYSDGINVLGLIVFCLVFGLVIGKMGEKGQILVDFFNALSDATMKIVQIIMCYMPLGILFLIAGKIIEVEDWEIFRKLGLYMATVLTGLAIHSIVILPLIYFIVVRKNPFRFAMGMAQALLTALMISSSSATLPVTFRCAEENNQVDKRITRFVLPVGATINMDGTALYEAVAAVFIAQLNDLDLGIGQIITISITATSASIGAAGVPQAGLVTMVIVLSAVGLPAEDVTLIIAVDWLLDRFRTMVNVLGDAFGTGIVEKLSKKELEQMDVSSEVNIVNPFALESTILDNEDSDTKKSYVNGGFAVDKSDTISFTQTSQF
The assay can be described thus: TEVC in oocytes expressing glutamate transporter. The note with it: EAAT3 (SLC1A1); 10 µM L-glu current, TEVC; read-out: IC50, block of glutamate current. The protocol: (§2) Additionally, 4-HP applied at 1 mM was used to assess activity at the glutamate transporters SLC1A3 or SLC1A1.
(§3) BPOHP activity was evaluated against the glutamate transporters paralogs within the SLC1A gene family (SLC1A 1–3) as well as at neutral amino acid transporters that share common ligand substrates with the SLC1 family including SLC38A1,2, and 4 (ATA1, ATA2, ATA3) and heteromeric transporters SLC7A10+SLC3A2 (asc-1/4f2).
(§4) Uptake was halted by washing 3 times with 4 °C ND96 buffer. Oocytes were then lysed in 0.1% Triton X-100, and radioactivity was counted via liquid scintillation. Dose response curves were generated by fitting fractional inhibition (I) to the expression I = Imax × [inhibitor]/([inhibitor] + IC50).
as §1
(§5) Figure SM-2 TEVC from oocytes expressing SLC1A1-3 transporters.
(§6) (1 picture or pasted object on this page, not shown here)

The target of assay [3] is T3, SLC1A3 (EAAT1) (Homo sapiens, UniProt P43003).
T3 construct: expressed in transfected cells; host or cells: Xenopus laevis oocytes (cRNA injection)
T3 sequence (P43003 whole entry): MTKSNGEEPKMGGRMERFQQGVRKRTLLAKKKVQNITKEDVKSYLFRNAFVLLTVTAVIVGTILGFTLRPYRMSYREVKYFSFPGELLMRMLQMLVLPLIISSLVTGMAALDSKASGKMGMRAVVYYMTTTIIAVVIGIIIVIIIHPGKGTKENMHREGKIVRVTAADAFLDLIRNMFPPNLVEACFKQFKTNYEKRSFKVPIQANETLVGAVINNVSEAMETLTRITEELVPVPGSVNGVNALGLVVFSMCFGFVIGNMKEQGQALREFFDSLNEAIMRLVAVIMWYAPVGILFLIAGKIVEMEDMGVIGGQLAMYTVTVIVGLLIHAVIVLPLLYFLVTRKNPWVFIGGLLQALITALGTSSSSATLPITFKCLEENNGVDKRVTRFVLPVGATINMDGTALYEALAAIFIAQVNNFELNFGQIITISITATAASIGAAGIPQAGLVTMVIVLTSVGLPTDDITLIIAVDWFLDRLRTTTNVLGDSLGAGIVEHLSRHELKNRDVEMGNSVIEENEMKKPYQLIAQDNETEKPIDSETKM
The assay is described as follows: TEVC in oocytes expressing glutamate transporter. The conditions noted are these: EAAT1 (SLC1A3); 10 µM L-glu current, TEVC; read-out: IC50, block of glutamate current. The protocol:
as §2, §3, §4, §1, §5, §6

Assay [4] has as its target T4, SLC38A2 (ATA2) (Homo sapiens, UniProt Q96QD8).
T4 construct: expressed in transfected cells; host or cells: Xenopus laevis oocytes (cRNA injection)
T4 sequence (Q96QD8 1-506): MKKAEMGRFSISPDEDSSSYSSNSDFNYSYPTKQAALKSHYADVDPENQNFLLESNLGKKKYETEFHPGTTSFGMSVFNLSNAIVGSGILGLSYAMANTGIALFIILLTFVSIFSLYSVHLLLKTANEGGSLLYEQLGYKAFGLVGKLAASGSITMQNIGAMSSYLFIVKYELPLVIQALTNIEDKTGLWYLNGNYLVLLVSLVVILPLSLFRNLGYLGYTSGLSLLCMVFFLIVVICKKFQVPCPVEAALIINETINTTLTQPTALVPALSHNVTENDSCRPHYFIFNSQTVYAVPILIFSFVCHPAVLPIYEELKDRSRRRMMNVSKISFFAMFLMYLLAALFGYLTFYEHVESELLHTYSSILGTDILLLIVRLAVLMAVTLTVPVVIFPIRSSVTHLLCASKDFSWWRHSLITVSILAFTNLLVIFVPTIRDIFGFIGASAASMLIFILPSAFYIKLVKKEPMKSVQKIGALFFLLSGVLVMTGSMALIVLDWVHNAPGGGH
The assay can be described thus: TEVC electrogenic coupled currents in oocytes. The conditions noted are these: 100 µM L-alanine, 3 µM BPOHP. How it is done:
as §2, §3, §4
Two-electrode voltage clamp (TEVC) transporter currents were recorded with a GeneClamp 500 amplifier and Digidata 1320A analog–digital interface (Molecular Devices, San Jose, CA, USA). […] Data were acquired with Axograph (v1.7.6) and LabChart (v7) and analyzed with Kaleidagraph software (v4.1) (Synergy, Reading, PA, USA). Uncoupled anion currents associated with the transport of substrate and block of SLC1A4 or SLC1A5 mediated leak conductance were recorded in the presence of Ringer with 50% substitution of NaCl by NaSCN to amplify the non-transported anion conductance. […]

`O=C(O)[C@H]1NC[C@@H](OCc2ccc(-c3ccccc3)cc2)[C@@H]1O` [14e]: the “fold improvement in affinity over ligands previously reported” value in assay [1] was 7–25 fold. Also, the IC50 is 19.5 µM and 25.3 µM in assay [2]; 1.75 µM and 2.45 µM in assay [3]. Moreover, the “block of L-alanine current” value in assay [4] was “no effect; also recorded: no discernible block; also recorded: no inhibition was detected”.

Values taken from article PMC11123841, “Discovery and Synthesis of Hydroxy-L-Proline Blockers of the Neutral Amino Acid Transporters SLC1A4 (ASCT1) and SLC1A5 (ASCT2)” (Molecules, 2024).
